{
  "source": "patent US9765083B2",
  "about": "“Method for the synthesis of irinotecan” (Synbias Pharma AG, priority 2013, dated 2017)",
  "experiment": "solubility of 7-des-ethyl-irinotecan compared with camptothecin and 10-hydroxycamptothecin",
  "type": "physicochemical",
  "conditions": "as compared to camptothecin and 10-hydroxycamptothecin; solvent not stated",
  "data": [
    {"smiles": "CC[C@@]1(O)C(=O)OCc2c1cc1n(c2=O)Cc2cc3cc(OC(=O)N4CCC(N5CCCCC5)CC4)ccc3nc2-1", "note": "[7-des-ethyl-irinotecan, 10-[4-(1-piperidino)-1-piperidino]carbonyloxycamptothecin]", "values": [
      {"measurement": "solubility", "result": "significantly better solubility"}
    ]}
  ]
}
